Data reported in patent US5952390A, “10-substituted 1,8-dihydroxy-9(10H) anthracenone pharmaceuticals” (Teva Pharmaceutical Industries Ltd., priority 1998, dated 1999).
pIC50: −log10 of the molar value. Read-outs that look alike come from different tables or passages of the source. One block for each compound: values may come before it.

Tests used:
5-LO in bovine PMNL = molecular target: T1, 5-LO in bovine PMNL (Bos taurus, UniProt F1MQ78); assay: Bovine PMNL 5-lipoxygenase assay (inhibition of 5-HETE and LTB4 biosynthesis); format: cell-based
T1 construct: endogenous in cells; host or cells: polymorphonuclear leukocytes isolated from bovine blood
T1 sequence (F1MQ78 1-674): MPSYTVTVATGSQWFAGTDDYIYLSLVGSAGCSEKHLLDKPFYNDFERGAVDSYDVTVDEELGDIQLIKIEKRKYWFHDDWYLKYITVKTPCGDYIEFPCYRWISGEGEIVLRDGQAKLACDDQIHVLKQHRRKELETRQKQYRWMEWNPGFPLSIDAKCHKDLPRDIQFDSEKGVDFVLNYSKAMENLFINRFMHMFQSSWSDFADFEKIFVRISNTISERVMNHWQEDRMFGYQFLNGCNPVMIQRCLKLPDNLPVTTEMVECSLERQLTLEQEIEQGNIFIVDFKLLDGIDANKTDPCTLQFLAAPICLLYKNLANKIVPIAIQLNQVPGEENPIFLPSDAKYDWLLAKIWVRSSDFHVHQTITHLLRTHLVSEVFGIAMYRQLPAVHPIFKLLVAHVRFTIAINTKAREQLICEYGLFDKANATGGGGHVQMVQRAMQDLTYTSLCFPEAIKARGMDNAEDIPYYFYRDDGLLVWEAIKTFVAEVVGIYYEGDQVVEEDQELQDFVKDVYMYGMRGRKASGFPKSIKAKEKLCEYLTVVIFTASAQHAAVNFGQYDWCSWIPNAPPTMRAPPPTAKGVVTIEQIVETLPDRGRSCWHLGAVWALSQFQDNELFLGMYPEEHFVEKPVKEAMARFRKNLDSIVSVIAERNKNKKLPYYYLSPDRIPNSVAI

HaCaT cells [1] = assay: LDH release in HaCaT cells; format: cell-based; conditions: for LDH release versus vehicle control, in words: 2 microM, 37° C., four hours
Text: (§1) The biological assay methods were as follows: LDH release as described in Muller K, Huang H-S, Wiegrebe W, J. Med. Chem. 39, 3132-3138 (1996); bovine PMNL 5-LO assay as described in Muller K, Gurster D, Piwek S, Wiegrebe W, J. Med. Chem. 36, 4099-4107 (1993); and degradation of 2-deoxy-D-ribose as described in Muller K, Gurster D, Biochem. Pharmacol. 46, 1695-1704 (1993). HaCaT keratinocyte proliferation assay was generally described in Muller K, Leukel P, Zeireis K, Gawlik I, J. Med. Chem 37, 1660-1669 (1994). Specifically, the HaCaT cells were incubated with the test compounds (2 microM) for four hours at 37° C. Extracellular LDH activity was measured using the UV method with pyruvate and NADH and is expressly in mU/ml. Appropriate controls with the vehicle were performed (P<0.01; N=3, SD<10%).
Geisel J.; Mahrle, G. "Lactate dehydrogenase release as an indicator of dithranol-induced membrane injury in cultured human keratinocytes", Arch. Dermatol. Res., 282, 325-329 (1990)). Cytotoxicity against cell cultures by the potent cell growth inhibitors was assessed by the activity of lactate dehydrogenase (LDH) activity release into the culture medium. The release of LDH is commonly used as an indicator of plasma membrane damage.

HaCaT cells [2] = assay: HaCaT keratinocyte proliferation assay; format: cell-based; conditions: Homo sapiens
Text: as §1

[3] = Degradation of 2-deoxy-D-ribose (hydroxyl radical formation)
Description: This assay followed generally the procedures of Gutteridge, J. M. C., "Reactivity of Hydroxyl and Hydroxyl-Like Radicals Discriminated by Release of Thiobarbituric Acid-Reactive Material from Deoxy Sugars, Nucleosides and Benzoate", Biochem. J., 224, 761-767 (1984) and of Laughton, M. J. et al., "Antioxidant and Prooxidant Actions of the Plant Phenolics Quercetin, Gossypol and Myricetin", Biochem. Pharmacol., 38, 2859-2865 (1989). The following reagents were added to glass tubes in the order and at the final concentrations stated. 0.3 ml KH2 PO4 -KOH buffer, pH 7.4 (30 mM), 0.2 ml H2 O bidist., 0.2 ml 2-deoxy-D-ribose (2 mM), 0.2 ml FeCl3 .cndot.6 H2 O (0.1 mM), 0.1 ml anthracenone derivative (75 μM). Stock solutions of the compounds were made up fresh before use. Appropriate blanks and controls with the vehicle (acetonitrile) were conducted. The final reaction volumes were standardized to 1.0 ml. The reaction mixtures were incubated for 2 h at 37° C. in a shaking water bath. 1.0 ml of 2.8% (w/v) trichloroacetic acid and 1.0 ml of 1% (w/v in 0.05 N NaOH) 2-thiobarbituric acid (TBA) were added, and the samples were heated at 100° C. for 15 min and then cooled in an ice bath (5 min). Then 2.0 ml of the reaction mixtures were treated with 0.05 ml of 36% (w/v) HCl and 2.0 ml of 1-butanol and the mixtures were vigorously shaken in a vortex mixer (Heidolph) for 15 s. The organic layer was separated by centrifugation at 3000 rpm (15 min) and the absorbance at 532 nm was measured against butanol. […]
The biological assay methods were as follows: LDH release as described in Muller K, Huang H-S, Wiegrebe W, J. Med. Chem. 39, 3132-3138 (1996); bovine PMNL 5-LO assay as described in Muller K, Gurster D, Piwek S, Wiegrebe W, J. Med. Chem. 36, 4099-4107 (1993); and degradation of 2-deoxy-D-ribose as described in Muller K, Gurster D, Biochem. Pharmacol. 46, 1695-1704 (1993). […] Extracellular LDH activity was measured using the UV method with pyruvate and NADH and is expressly in mU/ml. […]

psoriasis = conditions: in vivo; cited from earlier work
skin = conditions: topical/therapeutic application; cited from earlier work
[4] = system: cultured human keratinocytes; conditions: cited from earlier work
[5] = system: LTB4 production in human neutrophils; conditions: depending on cell density; cited from earlier work
[6] = Reducing activity toward DPPH; conditions: Table I (Addendum); equimolar amount of test compound
Description: This assay followed generally the procedures of Blois, M. S., "Antioxidant Determinations by the Use of a Stable Free Radical", Nature, 181, 1199-1200 (1958) and Kato, K. et al., "Studies on Scavengers of Active Oxygen Species. 1. Synthesis and Biological Activity of 2-O-Alkylascorbic Acids", J. Med. Chem., 31, 793-798 (1988). In time studies, 1 ml of test compound solution (10^-4 M) was added to 1 ml of DPPH solution (10^-4 M), each in acetone/PBS (1+1 V/V), and the reduction of DPPH was followed spectrophotometrically at 516 nm. Plots of the reciprocal of DPPH concentrations against time gave straight lines, and the second-orderrate constants were obtained from the slopes and are expressed as mean values (n=3-6). In the cases where DPPH was very fast approximate values are given and expressed as kDPPH >100 or kDPPH >>100M^-1s^-1.
Because a radical scavenging antioxidant reacts rapidly with the stable free radical 2,2-diphenyl-1-picrylhydrazyl (DPPH), Blois, M. S., "Antioxidant Determination by the Use of a Stable Free Radical", Nature, 181, 1199-1200 (1958); Kato, K. et al., "Studies on Scavengers of Active Oxygen Species. I. Synthesis and Biological Activity of 2-O-Alkylascorbic Acids", J. Med. Chem., 31, 793-798 (1988), the reactivities of the new compounds with DPPH were determined by decrease in absorbance at 516 nm.

[7] = Lipid peroxidation in bovine brain phospholipid liposomes; conditions: Table I (Addendum); n = 3 or more; standard errors average 20%; read-out: LPO IC50
Description: Phospholipids were prepared essentially as described by Gutteridge, J. M. C., "The Measurement of Malondialdehyde in Peroxidised Ox-Brain Phospholipid Liposomes", Anal. Biochem., 82, 76-82 (1977). Bovine brain, cooled on ice, was freed from blood vessels and washed repeatedly with 0.15M NaCl, pH 7.4. It was cut to pieces and then macerated with an ultra-turrax, passed through a close-meshed sieve, and extracted four times with four times the volume of acetone. The extraction mixture was filtered by suction to remove the acetone, the residue was dried under vacuum, and then repeatedly extracted with petroleum ether (40-60) using twice the volume of the original brain homogenate. The combined extracts were filtered, dried at 45° C., and dissolved in ether (one fifth of the original brain volume). The mixture was treated with five times the volume of acetone, and the resulting precipitate was collected by suction-filtration, dried and stored under N2 at -20° C. in the dark. Bovine brain phospholipids were weighed into glass tubes and shaken in a vortex mixer (Heidolph) in the presence of five small glass beads (.phi. 4 mm) for 1 min. […]
The following reagents were added to glass tubes in the order and at the final concentrations stated. […] The organic layer was separated by centrifugation at 3000 rpm (15 min) and the absorbance at 532 nm was measured against butanol.

[8] = pH 7.5; cited from earlier work
[9] = Stability at pH 7.4 in phosphate buffer under lipoxygenase assay incubation; format: physicochemical; conditions: pH 7.4, phosphate buffer, lipoxygenase assay conditions
Description: In connection with confirming the resistance to metabolic degradation of the compounds of the invention, the following procedures will be of interest. C-10-acylated compounds of Tanzer et al., Arch. Pharm., 322, 441-444 (1989) were determined to be stable at pH 7.5 when incubated for glucose-6-phosphate dehydrogenase inhibition assays. […] The compounds of the present invention are stable at pH 7.4 (in phosphate buffer) when incubated for the lipoxygenase assay. […] These procedures are expected to be useful in confirming the metabolic stability of the compounds of the invention.

[10] = octanol-water; cited from earlier work
[11] = Table V, 2 μM test compound (Example 8)
[12] = Table IV, 2 μM test compound, N = 3, SD < 10%
[13] = Table IV, N = 3, P < 0.01, read-out: AA IC50 (antiproliferative activity)

effectiveness as inhibitor of lipoxygenase relative to anthralin (5-LO in bovine PMNL; compared with anthralin): ~100 times
SMILES: O=C1c2c(O)cccc2C(C(=O)CCCc2ccccc2)c2cccc(O)c21 [Ip, 1,8-Dihydroxy-10-(1-oxo-4-phenylbutyl)-9(10H)-anthracenone]

SMILES: CC(=O)Oc1cccc2cc3cccc(OC(C)=O)c3c(OC(C)=O)c12 [triacetoxyanthracene]
inhibition at 30 µM (5-LO in bovine PMNL; at 30 μM, bovine PMNL): 15%

LDH release (HaCaT cells [1]; [11]): 171 mU
pIC50 (5-LO in bovine PMNL; Table V, bovine PMNL): 6.52
DD(OH), deoxyribose degradation ([3]; Table V, footnotes same as in Example 8): < 0.3 μmol of malondialdehyde/mmol o
SMILES: CC(CCC(=O)C1c2cccc(O)c2C(=O)c2c(O)cccc21)c1ccccc1 (racemic) [Compound Iw, (R,S)-1,8-dihydroxy-10-(1-oxo-4-phenylpentyl)-9(10H)-anthracenone]
pIC50 (HaCaT cells [2]; Table V, footnotes same as in Example 8, read-out: AA IC50 (antiproliferative activity)): 6.10

SMILES: O=C1c2ccccc2Cc2cccc(O)c21 [1-hydroxy-9(10H)-anthracenone]
antipsoriatic efficacy, in words (psoriasis): effective in the treatment of psoriasis

pIC50 (5-LO in bovine PMNL): 6.40
SMILES: CC(Cc1ccc(O)c(O)c1)C(C)Cc1ccc(O)c(O)c1 (centres unmarked) [Nordihydroguaiaretic acid (NDGA), Nordihydroguaiaretic acid]

LDH release (HaCaT cells [1]; [12]): 145 mU
pIC50 (5-LO in bovine PMNL): 6.22
DD(OH), deoxyribose degradation ([3]; Table IV, released by 75 μm test compound (so in the source)): < 0.3 μmol of malondialdehyde/mmol o
SMILES: Cc1ccc(CC(=O)C2c3cccc(O)c3C(=O)c3c(O)cccc32)cc1 [Compound Iv, 1,8-dihydroxy-10-[2-(4-methylphenyl)-1-oxoethyl]-9(10H)-anthracenone]
LDH release versus vehicle control, in words (HaCaT cells [1]): not significantly different as compared to vehicle controls
pIC50 (HaCaT cells [2]; [13]): 6.15

LDH release (HaCaT cells [1]; [12]): 294 mU
LDH release (HaCaT cells [1]; [11]): 294 mU
pIC50 [7]: 4.92
time to degradation [9]: ≤ 2 h
SMILES: O=C1c2c(O)cccc2Cc2cccc(O)c21 [Anthralin, 1,8-dihydroxy-9(10H)-anthracenone]
irritation, in words (skin): non-affected skin surrounding a psoriatic lesion to which anthralin is applied is frequently irritated
membrane damage, in words [4]: cause membrane damage, but did not directly lead to substantial membrane destruction
pIC50 [5]: 4.13 to 5.15
kDPPH [6]: 24.2 ± 4.2 M⁻¹ s⁻¹
LDH release versus vehicle control, in words (HaCaT cells [1]): significantly exceeded that of the vehicle control
antipsoriatic efficacy, in words (psoriasis): effective in the treatment of psoriasis
stability under G6PD inhibition assay incubation, in words [8]: degraded almost completely
pIC50 (HaCaT cells [2]; [13]): 6.15

SMILES: c1ccc2ccccc2c1 [naphthalene]
log P (known values of calibration compounds) [10]: 3.44
